In one data set the test system is astrocytes. Kind of data set: MTS cell viability assay. The format is cell-based, human. The conditions noted are these: 20 uM TGX-221 and 50 uM TMZ, 4 days. On the procedure:
(§1) Cell viability was measured by the MTS assay. P values were determined using the student t test or one-way ANOVA. Error bars represent three independent experiments.
(FIG. 46A) The effect of the αCT1/GSK/TMZ combo in VTC-103 cells. […] (FIG. 46B) The effect of the αCT1/GSK/TMZ combo in LN229 cells. (FIG. 46C) EOB scores of drug combinations in VTC-103 and LN229 cells. […] (FIG. 46E) EOB scores of drug combinations in astrocytes. One-way ANOVA with Dunnett test for correction of multiple comparisons or Student's t test was used to determine statistical significance. *: P<0.05; ns: not significant. Drug combinations with strong synergistic effect were marked in red.
Cell viability was determined by the MTS cell viability assay (Promega) as described previously 21,24-27. In brief, 250 to 1,000 cells were plated in the wells of a 96-well plate-based upon the cell growth rate. Because the drug treatment usually takes 6-7 days, fast-growing cells could be over-grown if plated at a high cell density. […] At each hour time point, the absorbance at 490 nm was measured using a FilterMax F3 microplate reader (Molecular Devices, LLC) according to the manufacturer's instructions. Percent cell viability was obtained by dividing the absorbance of treatment groups to those of untreated and respective vehicle control groups.
A general note: Formazan colour is commonly taken as a measure of viable cells.

The target in the next data set is p110b (Homo sapiens, UniProt P42338). As to the kind of experiment: p110b activity ELISA (cell-free kinase assay). The format is biochemical. The text has this:
The activity of the p110b PI3K catalytic subunit was monitored via ELISA upon increasing doses of Ante-Selectide-18.
Relative activity is the ratio of respective treated groups to their non-treated controls.
(FIG. 51A) 3D of a p110β/p85α complex determined by SWISS-MODEL and Cluspro. (FIG. 51B) Protein sequences were aligned using COBALT. C2 domains (top) are show. Red bars: same residues; Grey bars: different residues; Red lines: missing residues. […] in p110β C2 (bottom) is shown and termed as 018. Docking of p110β and p85α (FIG. 51C) or p110α and p85α (FIG. 51D) was done by SWISS-MODEL, Cluspro, and Chimera. The 018 motif is labeled in magenta. Deletion of β18 motif (FIG. 51E) changed the 3D shapes of p110β/p85 (FIG. 51C). (FIG. 51F) p110β cell-free kinase assay. An enzyme-linked immunosorbent assay (ELISA) was used to measure levels of lipids PIP2/PIP3. (FIG. 51G) Effect of PI3K inhibitors on p110s using ELISA. p110β (FIG. 51H) or p110α (FIG. 51I) was docked with Selectide-18-bound p85α using Cluspro/Chimera.
Applicant also included a control scramble peptide containing the antennapedia sequence followed by the amino acid sequence of Ante-Selectide-18 randomly scrambled. […] Applicant reports that this drug is not effective at inhibiting the kinase activity of p110b or other PI3K subunits at 100 nM, showing the promise of the Ante-Selectide-18 peptide as a potent selective p110b inhibitor at a low dose.

Another data set concerns tumor growth in mice. As to the kind of experiment: GBM tumor growth in mice. The format is in vivo.
Another data set deals with SF295 cells. As to the kind of experiment: MTS cell viability assay. The data set is classed as cell-based. The settings on record: 20 uM TGX-221 and 50 uM TMZ, 4 days. On the procedure:
(FIG. 12A) p110βC2in. CPP: cell-penetrating peptide. Simulated p110βC2in (rainbow as represented in greyscale) is shown. (FIG. 12B) FITC-p110βC2in in LN229/GSCs was imaged using a fluorescence microscope. Upper: FITC; lower: bright view. (FIG. 12C) PI3K/AKT activity affected by 100 μM p110βC2in (+) or C2Scramble-1 (−). (FIG. 12D) MTS Cell viability assay. Cells were treated with 50 μM peptides for 4 days. Student t test was used to determine P values.
as §1
This scheme has been repeated in experiments presented hereafter. Cell viability was determined using the MTS viability assay. Percentages of cell viability were obtained by normalizing the MTS readings of treatment groups to that of DMSO group. (FIG. 34B) Scores of Excess Over Bliss (EOB) calculated using the Bliss Independence model. The drug combination is synergistic if EOB is more than 0%, additive if EOB equals to 0%, or antagonistic if EOB is less than 0%. […] (FIG. 34D) EOB scores of drug combinations in LN229 and VTC-001 cells. (FIG. 34E) Caspase 3/7 activity in VTC-103 and VTC-001 cells. The activity of cleaved caspase 3/7 (active) was determined using a luminescence assay. Shown are luminescence readings. (FIG. 34F) EOB scores of drug combinations in VTC-103 and VTC-001 cells. […] SF295 cells were subcutaneously injected into immuno-deficient mice. […] Tumor volumes are shown. […] Cell viability was determined using the MTS viability assay. Percentages of cell viability were obtained by normalizing the MTS readings of treatment groups to that of shNS group. […]
Cell viability was determined by the MTS cell viability assay (Promega) as described previously 21,24-27. […] At each hour time point, the absorbance at 490 nm was measured using a FilterMax F3 microplate reader (Molecular Devices, LLC) according to the manufacturer's instructions. Percent cell viability was obtained by dividing the absorbance of treatment groups to those of untreated and respective vehicle control groups.

Data set [1] concerns PI3K/AKT signaling in SF295 cells. Kind of data set: immunoblotting of PI3K/AKT signaling in SF295 cells. The data set is classed as cell-based. A general note: In western blotting, separated proteins are transferred to a membrane and probed.

Here are results for 1 compound from patent publication US20240075093A1, “COMPOSITIONS AND METHODS OF TREATING A PI3K MEDIATED DISEASE” (VIRGINIA TECH INTELLECTUAL PROPERTIES, INC., priority 2020, published 2024).

The structures appear in SMILES notation.

p110b, sequence (P42338 whole entry): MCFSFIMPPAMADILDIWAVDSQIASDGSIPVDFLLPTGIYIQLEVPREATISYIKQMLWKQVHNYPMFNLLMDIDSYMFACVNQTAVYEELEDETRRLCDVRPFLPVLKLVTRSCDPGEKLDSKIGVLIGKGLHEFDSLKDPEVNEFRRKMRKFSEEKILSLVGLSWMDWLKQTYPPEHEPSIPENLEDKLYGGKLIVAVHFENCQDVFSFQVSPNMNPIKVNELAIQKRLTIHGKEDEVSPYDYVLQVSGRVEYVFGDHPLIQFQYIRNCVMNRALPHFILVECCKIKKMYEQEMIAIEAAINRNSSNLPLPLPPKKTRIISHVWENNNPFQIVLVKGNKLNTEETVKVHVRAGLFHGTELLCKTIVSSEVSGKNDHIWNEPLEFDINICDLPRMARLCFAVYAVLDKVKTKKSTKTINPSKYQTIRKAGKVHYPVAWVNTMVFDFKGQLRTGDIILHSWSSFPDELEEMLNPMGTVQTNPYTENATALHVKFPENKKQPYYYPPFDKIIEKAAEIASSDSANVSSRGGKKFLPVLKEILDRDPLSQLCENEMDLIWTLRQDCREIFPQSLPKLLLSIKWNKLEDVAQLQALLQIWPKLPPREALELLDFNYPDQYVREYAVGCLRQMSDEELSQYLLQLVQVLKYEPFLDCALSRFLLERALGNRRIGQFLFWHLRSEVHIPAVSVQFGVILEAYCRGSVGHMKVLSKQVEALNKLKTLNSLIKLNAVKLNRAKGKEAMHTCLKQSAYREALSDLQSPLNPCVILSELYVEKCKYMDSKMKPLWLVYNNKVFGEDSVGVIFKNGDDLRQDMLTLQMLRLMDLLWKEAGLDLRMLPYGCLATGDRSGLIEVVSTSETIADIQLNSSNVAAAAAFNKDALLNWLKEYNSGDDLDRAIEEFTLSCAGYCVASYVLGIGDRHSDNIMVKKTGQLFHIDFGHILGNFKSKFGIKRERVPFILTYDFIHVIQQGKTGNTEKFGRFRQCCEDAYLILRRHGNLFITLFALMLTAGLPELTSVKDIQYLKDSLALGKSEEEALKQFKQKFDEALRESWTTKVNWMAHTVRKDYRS

Regarding `Cc1cc(C(C)Nc2ccccc2)c2nc(N3CCOCC3)cc(=O)n2c1` (centres unmarked) [TGX-221], in the data set with astrocytes, the “effect of TGX-221 plus TMZ combination on astrocytes” value was “did not harm astrocytes”. For the same compound, at p110b (10 nM TGX-221, ELISA), the “activity of p110β” value is reported as “didn't inactivate p110β”. Moreover, on p110b (100 nM, ELISA, isolated protein subunit), the “activity of p110b” value is listed as “not effective”. Further, the “tumor growth in mice” value with tumor growth in mice is on record as “slow down tumor growth”. Also, the TMZ sensitivity result in the data set on SF295 cells is on record as “increased TMZ sensitivity”. Further, in data set [1] (8 μM TGX-221, 24 hours), the “AKT and RAC1/CDC42 activity” value is listed as “inactivated”; the “protein levels of MMP2” value is on record as “not”; the “protein levels of MMP9” value is on record as “decreased protein levels”. In addition, in data set [1] (25 μM TGX-221, 96 hours), the “BIM-EL, BIM-L, BIM-S (apoptotic forms of BIM)” value is on record as “remarkable increase”; the “cleaved caspase 3 (c-CASP3)” value is given as “remarkable increase”; the “levels of pFOXO3T32” value is “significantly decreased”.
